Where two headings read alike, the source gives them in different places. Numbered stars: 1 amine (or outer) side, 2 acyl side, 3 side chain; on linkers, the order of the positions; unused ones are H or OH. Square brackets hold non-standard residues; d marks the D form. Side chains are listed from the residue outwards. Peptide text beside a SMILES is read from it. * marks the point of attachment. C18 diacid = O=C(O)CCCCCCCCCCCCCCCCC(=O)*; γGlu = O=C(O)[C@H](CCC(=O)[*:2])N[*:1]; Ac4c(3-oxa) = NC1(C(=O)O)COC1; dNle = CCCC[C@@H](N)C(=O)O; dNva = CCC[C@@H](N)C(=O)O; AEEA = NCCOCCOCC(=O)O
Assays:
[1] = biological target: human GLP-1R (Homo sapiens, UniProt P43220); assay: cAMP signal analysis of GLP-1R (GLP-1 receptor agonist activity); type: cell-based
Protocol: A wild human GLP-1R (NM_002062.5) was subjected to transient transfection and screened for two weeks by 600 μg/ml of hygromycin-B to obtain a cell line which was recombined and integrated into an FlpInCHO (Invitrogen) cell stable expression system. The culture condition of the FlpInCHO cell was as follows: 10% of heat-inactivated fetal calf serum was added to a DMEM culture solution, and the culture was performed in a 5% carbon dioxide cell incubator.
In the test, an LANCE cAMP detection kit was used for measuring the cAMP signal intensity.

[2] = Pharmacokinetic comparison experiment in rats, single subcutaneous injection; conditions: rat, in vivo, sc, 0.02 mg/kg
Protocol: A single subcutaneous injection was performed with a dose of 0.02 mg/kg; blood collection was performed by tail clipping, and the blood collection time points were: 0 h, 15 min, 30 min, 1 h, 2 h, 3 h, 4 h, 6 h, 8 h, 24 h, 48 h and 72 h. The compound concentration in plasma was determined by LC-MS/MS, all data were collected and exported by Unifi 1.9.3 software, and Excel software was used for data calculation. A non-compartmental model of DAS 3.0 software was used to calculate the pharmacokinetic parameters of rats after administration.

[3] = CHO cell line stably expressing human GLP-1R, downstream cAMP signal, LANCE cAMP kit, read-out: GLP-1R EC50

Sequence of human GLP-1R (P43220 24-463): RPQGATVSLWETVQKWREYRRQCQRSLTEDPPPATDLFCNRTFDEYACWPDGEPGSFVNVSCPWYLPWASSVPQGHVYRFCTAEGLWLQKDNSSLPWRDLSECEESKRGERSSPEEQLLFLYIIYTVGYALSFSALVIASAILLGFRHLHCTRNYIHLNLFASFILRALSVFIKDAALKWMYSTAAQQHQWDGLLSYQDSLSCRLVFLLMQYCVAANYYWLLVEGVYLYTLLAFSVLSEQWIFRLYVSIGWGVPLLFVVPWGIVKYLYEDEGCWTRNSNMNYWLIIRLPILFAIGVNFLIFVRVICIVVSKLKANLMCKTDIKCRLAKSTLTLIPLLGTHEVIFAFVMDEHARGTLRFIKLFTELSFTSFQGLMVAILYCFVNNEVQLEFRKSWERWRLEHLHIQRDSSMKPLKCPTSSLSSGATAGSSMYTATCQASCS

Compound CCSC[C@@H](NC(=O)[C@H](CCC(=O)O)NC(=O)[C@H](CC(C)C)NC(=O)[C@H](Cc1ccc(O)cc1)NC(=O)[C@H](CO)NC(=O)[C@H](CO)NC(=O)[C@@H](NC(=O)[C@H](CC(=O)O)NC(=O)[C@H](CO)NC(=O)[C@@H](NC(=O)[C@H](Cc1ccccc1)NC(=O)[C@@H](NC(=O)CNC(=O)[C@H](CCC(=O)O)NC(=O)[C@@H](CSCC)NC(=O)[C@@H](N)Cc1c[nH]cn1)[C@@H](C)O)[C@@H](C)O)C(C)C)C(=O)N[C@@H](CCC(N)=O)C(=O)N[C@@H](C)C(=O)N[C@@H](C)C(=O)N[C@@H](CCCCNC(=O)COCCOCCNC(=O)COCCOCCNC(=O)CC[C@H](NC(=O)CCCCCCCCCCCCCCCCC(=O)O)C(=O)O)C(=O)N[C@@H](CCC(=O)O)C(=O)N[C@@H](Cc1ccccc1)C(=O)N[C@H](C(=O)N[C@@H](C)C(=O)N[C@@H](Cc1c[nH]c2ccccc12)C(=O)N[C@@H](CC(C)C)C(=O)N[C@H](C(=O)N[C@@H](CCCNC(=N)N)C(=O)NCC(=O)N[C@@H](CCCNC(=N)N)C(=O)NCC(=O)O)C(C)C)[C@@H](C)CC [NO: 11] (H-H[dC](Et)EGTFTSDVSSYLE[dC](Et)QAAK([AEEA-AEEA-γGlu-C18 diacid])EFIAWLVRGRG-OH) has an EC50 [1, 3] of 8.1 ± 0.507 nM.

In the case of CC[C@H](C)[C@H](NC(=O)[C@H](Cc1ccccc1)NC(=O)[C@H](CCC(=O)O)NC(=O)[C@H](CCCCNC(=O)COCCOCCNC(=O)COCCOCCNC(=O)CC[C@H](NC(=O)CCCCCCCCCCCCCCCCC(=O)O)C(=O)O)NC(=O)[C@H](C)NC(=O)[C@H](C)NC(=O)[C@H](CCC(N)=O)NC(=O)C1(NC(=O)[C@H](CCC(=O)O)NC(=O)[C@H](CC(C)C)NC(=O)[C@H](Cc2ccc(O)cc2)NC(=O)[C@H](CO)NC(=O)[C@H](CO)NC(=O)[C@@H](NC(=O)[C@H](CC(=O)O)NC(=O)[C@H](CO)NC(=O)[C@@H](NC(=O)[C@H](Cc2ccccc2)NC(=O)[C@@H](NC(=O)CNC(=O)[C@H](CCC(=O)O)NC(=O)C2(NC(=O)[C@@H](N)Cc3c[nH]cn3)COC2)[C@@H](C)O)[C@@H](C)O)C(C)C)COC1)C(=O)N[C@@H](C)C(=O)N[C@@H](Cc1c[nH]c2ccccc12)C(=O)N[C@@H](CC(C)C)C(=O)N[C@H](C(=O)N[C@@H](CCCNC(=N)N)C(=O)NCC(=O)N[C@@H](CCCNC(=N)N)C(=O)NCC(=O)O)C(C)C [NO: 5] (H-H[Ac4c(3-oxa)]EGTFTSDVSSYLE[Ac4c(3-oxa)]QAAK([AEEA-AEEA-γGlu-C18 diacid])EFIAWLVRGRG-OH), the EC50 [1, 3] is reported as 0.915 ± 0.126 nM.

With CC[C@H](C)[C@H](NC(=O)[C@H](Cc1ccccc1)NC(=O)[C@H](CCC(=O)O)NC(=O)[C@H](CCCCNC(=O)COCCOCCNC(=O)COCCOCCNC(=O)CC[C@H](NC(=O)CCCCCCCCCCCCCCCCC(=O)O)C(=O)O)NC(=O)[C@H](C)NC(=O)[C@H](C)NC(=O)[C@H](CCC(N)=O)NC(=O)[C@](C)(CC)NC(=O)[C@H](CCC(=O)O)NC(=O)[C@H](CC(C)C)NC(=O)[C@H](Cc1ccc(O)cc1)NC(=O)[C@H](CO)NC(=O)[C@H](CO)NC(=O)[C@@H](NC(=O)[C@H](CC(=O)O)NC(=O)[C@H](CO)NC(=O)[C@@H](NC(=O)[C@H](Cc1ccccc1)NC(=O)[C@@H](NC(=O)CNC(=O)[C@H](CCC(=O)O)NC(=O)[C@](C)(CC)NC(=O)[C@@H](N)Cc1c[nH]cn1)[C@@H](C)O)[C@@H](C)O)C(C)C)C(=O)N[C@@H](C)C(=O)N[C@@H](Cc1c[nH]c2ccccc12)C(=O)N[C@@H](CC(C)C)C(=O)N[C@H](C(=O)N[C@@H](CCCNC(=N)N)C(=O)NCC(=O)N[C@@H](CCCNC(=N)N)C(=O)NCC(=O)O)C(C)C [NO: 3] the EC50 [1, 3] was 2.84 ± 0.513 nM, the CL/F ([2]; male) was 0.133 mL/min/kg and the half-life ([2]; male) was 923 min. The AUC(0-inf) [2] was 2810 ng·h/mL, the AUC(0-t) [2] was 2630 ng·h/mL and the “AUMC(0-t), Mean” value [2] was 73156.82 h * h * μg/L. For the same compound, the “AUMC(0-∞), Mean” value [2] was 89827.62 h * h * μg/L, the Cmax [2] was 66.8 ng/mL and the “R_AUC(t/∞), Mean” value [2] was 93.53%. The Tmax [2] was 24 h and the Vd/F [2] was 0.17 L/kg.

Compound CC[C@H](C)[C@H](NC(=O)[C@H](Cc1ccccc1)NC(=O)[C@H](CCC(=O)O)NC(=O)[C@H](CCCCNC(=O)COCCOCCNC(=O)COCCOCCNC(=O)CC[C@H](NC(=O)CCCCCCCCCCCCCCCCC(=O)O)C(=O)O)NC(=O)[C@H](C)NC(=O)[C@H](C)NC(=O)[C@H](CCC(N)=O)NC(=O)[C@](C)(NC(=O)[C@H](CCC(=O)O)NC(=O)[C@H](CC(C)C)NC(=O)[C@H](Cc1ccc(O)cc1)NC(=O)[C@H](CO)NC(=O)[C@H](CO)NC(=O)[C@@H](NC(=O)[C@H](CC(=O)O)NC(=O)[C@H](CO)NC(=O)[C@@H](NC(=O)[C@H](Cc1ccccc1)NC(=O)[C@@H](NC(=O)CNC(=O)[C@H](CCC(=O)O)NC(=O)[C@](C)(NC(=O)[C@@H](N)Cc1c[nH]cn1)C(F)(F)C(F)(F)F)[C@@H](C)O)[C@@H](C)O)C(C)C)C(F)(F)C(F)(F)F)C(=O)N[C@@H](C)C(=O)N[C@@H](Cc1c[nH]c2ccccc12)C(=O)N[C@@H](CC(C)C)C(=O)N[C@H](C(=O)N[C@@H](CCCNC(=N)N)C(=O)NCC(=O)N[C@@H](CCCNC(=N)N)C(=O)NCC(=O)O)C(C)C [NO: 21] has an EC50 [1] of 0.652 ± 0.0417 nM.

Work on CCCC[C@@H](NC(=O)[C@H](CCC(=O)O)NC(=O)[C@H](CC(C)C)NC(=O)[C@H](Cc1ccc(O)cc1)NC(=O)[C@H](CO)NC(=O)[C@H](CO)NC(=O)[C@@H](NC(=O)[C@H](CC(=O)O)NC(=O)[C@H](CO)NC(=O)[C@@H](NC(=O)[C@H](Cc1ccccc1)NC(=O)[C@@H](NC(=O)CNC(=O)[C@H](CCC(=O)O)NC(=O)[C@@H](CCCC)NC(=O)[C@@H](N)Cc1c[nH]cn1)[C@@H](C)O)[C@@H](C)O)C(C)C)C(=O)N[C@@H](CCC(N)=O)C(=O)N[C@@H](C)C(=O)N[C@@H](C)C(=O)N[C@@H](CCCCNC(=O)COCCOCCNC(=O)COCCOCCNC(=O)CC[C@H](NC(=O)CCCCCCCCCCCCCCCCC(=O)O)C(=O)O)C(=O)N[C@@H](CCC(=O)O)C(=O)N[C@@H](Cc1ccccc1)C(=O)N[C@H](C(=O)N[C@@H](C)C(=O)N[C@@H](Cc1c[nH]c2ccccc12)C(=O)N[C@@H](CC(C)C)C(=O)N[C@H](C(=O)N[C@@H](CCCNC(=N)N)C(=O)NCC(=O)N[C@@H](CCCNC(=N)N)C(=O)NCC(=O)O)C(C)C)[C@@H](C)CC [NO: 13] (H-H[dNle]EGTFTSDVSSYLE[dNle]QAAK([AEEA-AEEA-γGlu-C18 diacid])EFIAWLVRGRG-OH) yielded an EC50 [1, 3] of 5.59 ± 0.575 nM.

With CCC[C@@H](NC(=O)[C@H](CCC(=O)O)NC(=O)[C@H](CC(C)C)NC(=O)[C@H](Cc1ccc(O)cc1)NC(=O)[C@H](CO)NC(=O)[C@H](CO)NC(=O)[C@@H](NC(=O)[C@H](CC(=O)O)NC(=O)[C@H](CO)NC(=O)[C@@H](NC(=O)[C@H](Cc1ccccc1)NC(=O)[C@@H](NC(=O)CNC(=O)[C@H](CCC(=O)O)NC(=O)[C@@H](CCC)NC(=O)[C@@H](N)Cc1c[nH]cn1)[C@@H](C)O)[C@@H](C)O)C(C)C)C(=O)N[C@@H](CCC(N)=O)C(=O)N[C@@H](C)C(=O)N[C@@H](C)C(=O)N[C@@H](CCCCNC(=O)COCCOCCNC(=O)COCCOCCNC(=O)CC[C@H](NC(=O)CCCCCCCCCCCCCCCCC(=O)O)C(=O)O)C(=O)N[C@@H](CCC(=O)O)C(=O)N[C@@H](Cc1ccccc1)C(=O)N[C@H](C(=O)N[C@@H](C)C(=O)N[C@@H](Cc1c[nH]c2ccccc12)C(=O)N[C@@H](CC(C)C)C(=O)N[C@H](C(=O)N[C@@H](CCCNC(=N)N)C(=O)NCC(=O)N[C@@H](CCCNC(=N)N)C(=O)NCC(=O)O)C(C)C)[C@@H](C)CC [NO: 15] (H-H[dNva]EGTFTSDVSSYLE[dNva]QAAK([AEEA-AEEA-γGlu-C18 diacid])EFIAWLVRGRG-OH) the EC50 [1, 3] was 2.9 ± 0.39 nM.

With CC[C@H](C)[C@H](NC(=O)[C@H](Cc1ccccc1)NC(=O)[C@H](CCC(=O)O)NC(=O)[C@H](CCCCNC(=O)COCCOCCNC(=O)COCCOCCNC(=O)CC[C@H](NC(=O)CCCCCCCCCCCCCCCCC(=O)O)C(=O)O)NC(=O)[C@H](C)NC(=O)[C@H](C)NC(=O)[C@H](CCC(N)=O)NC(=O)[C@@](C)(CC(F)(F)F)NC(=O)[C@H](CCC(=O)O)NC(=O)[C@H](CC(C)C)NC(=O)[C@H](Cc1ccc(O)cc1)NC(=O)[C@H](CO)NC(=O)[C@H](CO)NC(=O)[C@@H](NC(=O)[C@H](CC(=O)O)NC(=O)[C@H](CO)NC(=O)[C@@H](NC(=O)[C@H](Cc1ccccc1)NC(=O)[C@@H](NC(=O)CNC(=O)[C@H](CCC(=O)O)NC(=O)[C@@](C)(CC(F)(F)F)NC(=O)[C@@H](N)Cc1c[nH]cn1)[C@@H](C)O)[C@@H](C)O)C(C)C)C(=O)N[C@@H](C)C(=O)N[C@@H](Cc1c[nH]c2ccccc12)C(=O)N[C@@H](CC(C)C)C(=O)N[C@H](C(=O)N[C@@H](CCCNC(=N)N)C(=O)NCC(=O)N[C@@H](CCCNC(=N)N)C(=O)NCC(=O)O)C(C)C [NO: 19] the EC50 [1] was 0.791 ± 0.0635 nM.

CC[C@H](C)[C@H](NC(=O)[C@H](Cc1ccccc1)NC(=O)[C@H](CCC(=O)O)NC(=O)[C@H](CCCCNC(=O)COCCOCCNC(=O)COCCOCCNC(=O)CC[C@H](NC(=O)CCCCCCCCCCCCCCCCC(=O)O)C(=O)O)NC(=O)[C@H](C)NC(=O)[C@H](C)NC(=O)[C@H](CCC(N)=O)NC(=O)[C@@](C)(CC)NC(=O)[C@H](CCC(=O)O)NC(=O)[C@H](CC(C)C)NC(=O)[C@H](Cc1ccc(O)cc1)NC(=O)[C@H](CO)NC(=O)[C@H](CO)NC(=O)[C@@H](NC(=O)[C@H](CC(=O)O)NC(=O)[C@H](CO)NC(=O)[C@@H](NC(=O)[C@H](Cc1ccccc1)NC(=O)[C@@H](NC(=O)CNC(=O)[C@H](CCC(=O)O)NC(=O)[C@@](C)(CC)NC(=O)[C@@H](N)Cc1c[nH]cn1)[C@@H](C)O)[C@@H](C)O)C(C)C)C(=O)N[C@@H](C)C(=O)N[C@@H](Cc1c[nH]c2ccccc12)C(=O)N[C@@H](CC(C)C)C(=O)N[C@H](C(=O)N[C@@H](CCCNC(=N)N)C(=O)NCC(=O)N[C@@H](CCCNC(=N)N)C(=O)NCC(=O)O)C(C)C [NO: 1] showed an EC50 [1, 3] of 91.7 ± 9.69 nM.
